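96-well plates; 48 h exposure; 5 concentrations. Endpoints by linear interpolation between flanking doses. Not reached: highest tested concentration assigned. The concentration for 50% growth inhibition is given as GI50.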 Activity calls are given as the source filed them. Cut-off read from the data, not from the text of the source: active = GI50 up to about 1.1 µM and inactive = higher.
What was measured:
Assay in all cases: NCI-60 cell line screen, 48 h
SK-MEL-2 = test system: SK-MEL-2
NCI-H23 = test system: NCI-H23
SK-MEL-28 = test system: SK-MEL-28
PC-3 = test system: PC-3
HOP-62 = test system: HOP-62
ACHN = test system: ACHN
UACC-257 = test system: UACC-257
OVCAR-4 = test system: OVCAR-4
NCI/ADR-RES = test system: NCI/ADR-RES
NCI-H460 = test system: NCI-H460
SK-OV-3 = test system: SK-OV-3
MDA-MB-231 = test system: MDA-MB-231
HCT-116 = test system: HCT-116
MDA-MB-435 = test system: MDA-MB-435
Hs-578T = test system: Hs-578T
HCT-15 = test system: HCT-15
OVCAR-3 = test system: OVCAR-3
SR = test system: SR

SMILES	GI50 (SK-MEL-2)	GI50 (NCI-H23)	GI50 (SK-MEL-28)	GI50 (PC-3)	GI50 (HOP-62)	GI50 (ACHN)	GI50 (UACC-257)	GI50 (OVCAR-4)	GI50 (NCI/ADR-RES)	GI50 (NCI-H460)	GI50 (SK-OV-3)	GI50 (MDA-MB-231)	GI50 (HCT-116)	GI50 (MDA-MB-435)	GI50 (Hs-578T)	GI50 (HCT-15) [µM]	GI50 (OVCAR-3)	GI50 (SR)
Cc1ccc(CC(=O)Nc2ccc(NC(=O)/C=C/NC(=O)/C=C/c3ccc(-c4ccccc4)cc3)cc2C(=O)c2ccccc2)cc1	1.89 µM (inactive)	1.85 µM (inactive)	3.03 µM (inactive)	1.47 µM (inactive)	2.11 µM (inactive)	3.08 µM (inactive)	2.05 µM (inactive)	1.48 µM (inactive)	5.41 µM (inactive)	1.87 µM (inactive)	1.85 µM (inactive)	1.87 µM (inactive)	1.12 µM (active)	3.27 µM (inactive)	1.73 µM (inactive)	2.7	1.88 µM (inactive)	
O=C(/C=C1\C[C@H]2C=Nc3ccccc3C(=O)N2C1)NCCCCNC(=O)/C=C1\C[C@H]2C=Nc3ccccc3C(=O)N2C1	15.2 µM (inactive)	11.3 µM (inactive)	15.8 µM (inactive)	14.4 µM (inactive)	17.2 µM (inactive)	3.61 µM (inactive)	10.3 µM (inactive)	8.99 µM (inactive)	22.3 µM (inactive)	17.7 µM (inactive)	18.3 µM (inactive)	0.494 µM (active)	12.3 µM (inactive)	7.4 µM (inactive)	29.4 µM (inactive)	8.89	7.82 µM (inactive)	
Cc1cnc2[nH]c(-c3cccc(Cl)c3)cc(=O)c2c1	0.0889 µM (active)	0.375 µM (active)	0.315 µM (active)		0.0282 µM (active)	0.507 µM (active)	1.05 µM (active)	> 100 µM (inactive)	0.054 µM (active)	0.0378 µM (active)	0.0508 µM (active)	0.0569 µM (active)	0.0361 µM (active)	< 0.01 µM (active)	0.0266 µM (active)	0.117	0.0216 µM (active)	0.0345 µM (active)
OCC1OC(n2cnc3c(SCc4ccccc4)ncnc32)C(O)C1O (stereo not drawn)	96.8 µM (inactive)	4.86 µM (inactive)	> 100 µM (inactive)	4.94 µM (inactive)	> 100 µM (inactive)	4.24 µM (inactive)	> 100 µM (inactive)	11.8 µM (inactive)	10.2 µM (inactive)	> 44.7 µM (inactive)	> 89.3 µM (inactive)	5.48 µM (inactive)	5.45 µM (inactive)	> 100 µM (inactive)		3.25	6.61 µM (inactive)	2.9 µM (inactive)
COc1cc(C(c2cccc3ccccc23)N2C(=O)CCC2C(=O)NCc2ccccc2)cc(OC)c1OC (stereo not drawn)	> 100 µM (inactive)	> 100 µM (inactive)	> 100 µM (inactive)		> 100 µM (inactive)		> 100 µM (inactive)	> 100 µM (inactive)	> 100 µM (inactive)	> 100 µM (inactive)	> 100 µM (inactive)	> 100 µM (inactive)	> 100 µM (inactive)	> 100 µM (inactive)	83.6 µM (inactive)	> 100	> 100 µM (inactive)	> 100 µM (inactive)
CN1CCc2c(sc3ncn(C)c(=N)c23)C1	> 100 µM (inactive)	> 100 µM (inactive)	> 100 µM (inactive)	> 100 µM (inactive)	> 100 µM (inactive)	> 100 µM (inactive)	> 100 µM (inactive)	> 100 µM (inactive)	> 100 µM (inactive)	> 100 µM (inactive)	> 100 µM (inactive)	> 100 µM (inactive)	> 100 µM (inactive)	> 100 µM (inactive)	> 100 µM (inactive)	> 100	> 100 µM (inactive)	
O=C1C(NCCF)=C(Cl)C(=O)c2ncccc21	0.179 µM (active)	0.653 µM (active)	0.701 µM (active)	1.29 µM (inactive)	1.47 µM (inactive)	1.53 µM (inactive)	1.4 µM (inactive)			0.429 µM (active)	1.77 µM (inactive)	2.19 µM (inactive)	1.18 µM (inactive)	0.188 µM (active)	1.77 µM (inactive)	0.461	2.48 µM (inactive)	2.36 µM (inactive)
c1ccc(C2(c3cc4ccccc4[nH]3)OCCO2)cc1	42.6 µM (inactive)	> 100 µM (inactive)	28.2 µM (inactive)	36.6 µM (inactive)		35.9 µM (inactive)	31.6 µM (inactive)	32.2 µM (inactive)	67.6 µM (inactive)	36.9 µM (inactive)	85.1 µM (inactive)	> 100 µM (inactive)	37.8 µM (inactive)	31.4 µM (inactive)		41.6	53.5 µM (inactive)	22.4 µM (inactive)

From ChEMBL document CHEMBL1201862, “PubChem BioAssay data set” (2004)
